Patent US8575135B2 (Gilead Sciences, Inc., priority 2011, dated 2013)
pEC50: −log10 of the molar value. Read-outs that look alike come from different tables or passages of the source.

Assays:
[1] = tested on: stable HCV 1a RLuc replicon cells (genotype 1a H77 replicon); assay: microbe, parasite or virus in culture; format: cell-based; conditions: Hepatitis C virus; for pEC50: read-out: 1a; for EC50: read-out: 1a (nM)
[2] = IV and PO single dose pharmacokinetic studies in SD rats; format: in vivo; conditions: male, Sprague-Dawley, rat, plasma, IV infusion 1 mg/kg vs oral gavage 2 mg/kg, read-out: Rat % F
Experimental: IV and PO Single Dose Pharmacokinetic Studies in SD Rats: The pharmacokinetics of selected compounds was characterized in male Sprague-Dawley (SD) rats (250-300g). […] The intravenous (IV) dosing vehicle was 5% ethanol, 35% polyethylene glycol 400 (PEG 400) and 60% water pH 2.0. […] Serial blood samples (approximately 0.3 mL each) were collected from jugular vein or other suitable vein at specified time points. […] The blood samples were collected into Vacutainer™ tubes containing EDTA-K3 as the anti-coagulant and were centrifuged at approximately 4° C. to obtain plasma. The plasma samples were stored at −20° C. until analysis by LC/MS/MS. A bioanalytical method utilizing high performance liquid chromatography coupled to tandem mass spectrometry (LC/MS/MS) was developed for analysis of the selected compound in rat plasma. Detection was performed using selected reaction monitoring (SRM); […] Standard curve and quality control samples were prepared in male rat plasma and processed in the same way as the test samples to generate quantitative data. Pharmacokinetic parameters were generated using non-compartmental pharmacokinetic analysis (Phoenix WinNonlin, version 6.3). Values below the lower limit of quantification (LLOQ) were assigned a value of zero if predose and treated as missing thereafter. Area under the curve (AUC) was calculated using the linear trapezoidal rule. The oral bioavailability (% F) was determined by comparison of the area under the curve (AUC) of the compound and/or a metabolite generated in plasma following oral administration to that generated following intravenous administration.

[3] = tested on: 1a Pi-Rluc replicon with Q30R in genotype 1a NS5A; assay: microbe, parasite or virus in culture; format: cell-based, HCV; conditions: Hepatitis C virus; for pEC50: read-out: 1a Q30R; for EC50: read-out: 1a Q30R (nM)
Summary of the method: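 Renilla luciferase replicon assay: 1a Pi-RLuc replicon carrying NS5A Q30R, transfected transiently into cured-51 (Huh-7-derived) cells.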

[4] = tested on: NS5A chimeric genotype 1b Con1 replicon with genotype 4a ED43 strain NS5A gene; assay: microbe, parasite or virus in culture; format: cell-based, HCV; conditions: Hepatitis C virus; for pEC50: read-out: 4a
[5] = tested on: NS5A chimeric genotype 2a JFH-1 replicon with genotype 2a J6 strain NS5A gene (M31 present); assay: microbe, parasite or virus in culture; format: cell-based, HCV; conditions: Hepatitis C virus; for pEC50: read-out: 2a J6
[6] = tested on: NS5A chimeric genotype 1b Con1 replicon with genotype 3a S52 strain NS5A gene; assay: microbe, parasite or virus in culture; format: cell-based, HCV; conditions: Hepatitis C virus; for pEC50: read-out: 3a; for EC50: read-out: 3a (nM)
Summary of the method: (§1)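 Con1 1b replicons carrying 3a S52 or 4a ED43 NS5A with Pi-RLuc reporter were transiently transfected into Huh-Lunet cells; 2b MD2b-1 NS5A (M31) in JFH-1 2a backbone with RLuc-Neo, transient or stable.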

[7] = tested on: NS5A chimeric genotype 2a JFH-1 replicon with genotype 2b MD2b-1 strain NS5A gene (M31 present); assay: microbe, parasite or virus in culture; format: cell-based, HCV; conditions: Hepatitis C virus; for pEC50: read-out: 2b
Summary of the method: as §1

[8] = tested on: stable HCV 2a JFH-1 Rluc replicon cells (L31 present in NS5A); assay: microbe, parasite or virus in culture; format: cell-based; conditions: Hepatitis C virus; for pEC50: read-out: 2a JFH; for EC50: read-out: 2a JFH (nM)

COC[C@H]1C[C@@H](c2nc3ccc4cc5c(cc4c3[nH]2)OCc2cc(-c3cnc([C@@H]4C[C@H](C)CN4C(=O)[C@@H](NC(=O)OC)C(C)C)[nH]3)ccc2-5)N(C(=O)[C@H](NC(=O)OC)c2ccccc2)C1 [Example MN, methyl {(2S)-1-[(2S,4S)-2-(5-{2-[(2S,4S)-1-{(2R)-2-[(methoxycarbonyl)amino]-2-phenylacetyl}-4-(methoxymethyl)pyrrolidin-2-yl]-1,11-dihydroisochromeno[4′,3′:6,7]naphtho[1,2-d]imidazol-9-yl}-1H-imidazol-2-yl)-4-methylpyrrolidin-1-yl]-3-methyl-1-oxobutan-2-yl}carbamate]
pEC50 [1]: > 9.00
EC50 [1]: 0.014 nM
bioavailability [2]: 1.5%
pEC50 [3]: > 9.00
EC50 [3]: 0.018 nM
pEC50 [4]: > 9.00
EC50 ([4]; read-out: 4a (s) (nM)): 0.007 nM
EC50 ([4]; read-out: 4a (t) (nM)): 0.024 nM
pEC50 [5]: > 9.00
EC50 ([5]; read-out: 2a J6 (s) (nM)): 0.071 nM
EC50 ([5]; read-out: 2a Jb (t) (nM)): 0.017 nM
pEC50 [6]: > 9.00
EC50 [6]: 0.034 nM
pEC50 [7]: > 9.00
EC50 ([7]; read-out: 2b (s) (nM)): 0.04 nM
EC50 ([7]; read-out: 2b (t) (nM)): 0.013 nM
pEC50 [8]: > 9.00
EC50 [8]: 0.008 nM

COC[C@H]1C[C@@H](c2nc3ccc4cc5c(cc4c3[nH]2)OCc2cc(-c3cnc([C@@H]4C[C@H](C)CN4C(=O)[C@@H](NC(=O)OC)C(C)C)[nH]3)ccc2-5)N(C(=O)[C@@H](NC(=O)OC)C(C)C)C1 [Example MO, methyl {(2S)-1-[(2S,4S)-2-(5-{2-[(2S,4S)-1-{(2S)-2-[(methoxycarbonyl)amino]-3-methylbutanoyl}-4-methoxymethylpyrrolidin-2-yl]-1,11-dihydroisochromeno[4′,3′:6,7]naphtho[1,2-d]imidazol-9-yl}-1H-imidazol-2-yl)-4-methylpyrrolidin-1-yl]-3-methyl-1-oxobutan-2-yl}carbamate]
pEC50 [1]: > 9.00
EC50 [1]: 0.013 nM
bioavailability [2]: 7.46%
pEC50 [3]: > 9.00
EC50 [3]: 0.052 nM
pEC50 [4]: > 9.00
EC50 ([4]; read-out: 4a (s) (nM)): 0.018 nM
EC50 ([4]; read-out: 4a (t) (nM)): 0.022 nM
pEC50 [5]: > 9.00
EC50 ([5]; read-out: 2a J6 (s) (nM)): 0.471 nM
EC50 ([5]; read-out: 2a Jb (t) (nM)): 0.089 nM
pEC50 [6]: > 9.00
EC50 [6]: 0.051 nM
pEC50 [7]: > 9.00
EC50 ([7]; read-out: 2b (s) (nM)): 0.427 nM
EC50 ([7]; read-out: 2b (t) (nM)): 0.137 nM
pEC50 [8]: > 9.00
EC50 [8]: 0.007 nM

COC[C@H]1C[C@@H](c2nc3ccc4cc5c(cc4c3[nH]2)OCc2cc(-c3cnc([C@@H]4CC[C@H](C)N4C(=O)[C@@H](NC(=O)OC)C(C)C)[nH]3)ccc2-5)N(C(=O)[C@@H](NC(=O)OC)C(C)C)C1 [Example MP, methyl{(2S)-1-[(2S,5S)-2-(5-{2-[(2S,4S)-1-{(2S)-2-[(methoxycarbonyl)amino]-3-methylbutanoyl}-4-methoxymethylpyrrolidin-2-yl]-1,11-dihydroisochromeno[4′,3′:6,7]naphtho[1,2-d]imidazol-9-yl}-1H-imidazol-2-yl)-5-methylpyrrolidin-1-yl]-3-methyl-1-oxobutan-2-yl}carbamate]
pEC50 [1]: > 9.00
EC50 [1]: 0.006 nM
bioavailability [2]: 24.2%
pEC50 [3]: > 9.00
EC50 [3]: 0.031 nM
pEC50 [4]: > 9.00
EC50 ([4]; read-out: 4a (s) (nM)): 0.013 nM
EC50 ([4]; read-out: 4a (t) (nM)): 0.015 nM
pEC50 [5]: > 9.00
EC50 ([5]; read-out: 2a J6 (s) (nM)): 0.336 nM
EC50 ([5]; read-out: 2a Jb (t) (nM)): 0.039 nM
pEC50 [6]: > 9.00
EC50 [6]: 0.015 nM
pEC50 [7]: > 9.00
EC50 ([7]; read-out: 2b (s) (nM)): 0.184 nM
EC50 ([7]; read-out: 2b (t) (nM)): 0.032 nM
pEC50 [8]: > 9.00
EC50 [8]: 0.004 nM

CC[C@H](C)[C@H](NC(=O)OC)C(=O)N1[C@@H](C)CC[C@H]1c1ncc(-c2ccc3c(c2)COc2cc4c(ccc5nc([C@@H]6C[C@H](COC)CN6C(=O)[C@H](NC(=O)OC)c6ccccc6)[nH]c54)cc2-3)[nH]1 [Example OW]
pEC50 [1]: > 9.00
EC50 [1]: 0.009 nM
bioavailability [2]: 13.3%
pEC50 [3]: > 9.00
EC50 [3]: 0.019 nM
pEC50 [5]: > 9.00
EC50 ([5]; read-out: 2a Jb (t) (nM)): 0.009 nM
pEC50 [6]: > 9.00
EC50 [6]: 0.013 nM
pEC50 [7]: > 9.00
EC50 ([7]; read-out: 2b (t) (nM)): 0.008 nM
pEC50 [8]: > 9.00
EC50 [8]: 0.006 nM
